Values quoted from earlier work, collected in patent publication US20110082127A1, “NEW INJECTABLE FORMULATIONS CONTAINING PROGESTERONE” (priority 2004, published 2011).

Details: stated by the known art

water solubility: 1.8 g/100 ml
Structure (SMILES): OC[C@H]1O[C@@H]2O[C@H]3[C@H](O)[C@@H](O)[C@@H](O[C@H]4[C@H](O)[C@@H](O)[C@@H](O[C@H]5[C@H](O)[C@@H](O)[C@@H](O[C@H]6[C@H](O)[C@@H](O)[C@@H](O[C@H]7[C@H](O)[C@@H](O)[C@@H](O[C@H]8[C@H](O)[C@@H](O)[C@@H](O[C@H]1[C@H](O)[C@H]2O)O[C@@H]8CO)O[C@@H]7CO)O[C@@H]6CO)O[C@@H]5CO)O[C@@H]4CO)O[C@@H]3CO [unsubstituted β-cyclodextrin, β-cyclodextrin]
